According to US11981660B2, “Neurite outgrowth promoters and uses thereof” (UNIVERSITY OF MIAMI, priority 2018, dated 2024):

Test system: hippocampal neurons
Test: Neurite outgrowth assay in cultured E18 rat hippocampal neurons (48 h, βIII-tubulin staining, Cellomics ArrayScan)
Type: cell-based
Details: Hippocampal neuron; for activity at 0.015625 µg/mL: 15.625 ng/mL compound; for activity at 0.015625 µg/mL / activity at 0.03125 µg/mL / activity at 0.0625 µg/mL / activity at 0.125 µg/mL / activity at 0.25 µg/mL / activity at 0.5 µg/mL: 48 hours, read-out: neurite growth length (% NTL); for activity at 0.03125 µg/mL: 31.25 ng/mL compound; for activity at 0.0625 µg/mL: 62.5 ng/mL compound; for activity at 0.125 µg/mL: 125 ng/mL compound; for activity at 0.25 µg/mL: 250 ng/mL compound; for activity at 0.5 µg/mL: 500 ng/mL compound; for EC200 / EC300: 48 h, estimated using linear interpolation; for EC200: 200% effective dose, read-out: ED200%; for EC300: 300% effective dose, read-out: ED300%
Procedure: Pre-coating culture plates: On the day before the experiment, 96-well plates were pre-coated by plating 50 μL of poly-D-lysine solution (PDL, 0.5 mg/mL) in each well. The next morning, the plates were washed four or five times with HBSS or PBS (150 μL/rinse), then left in buffer until cell plating
Preparing the cells: A timed pregnant rat carrying E18 embryos was euthanized using an IACUC approved method. In a laminar flow hood, the embryos were removed and placed in a petri dish containing Hank's Balanced Salt Solution (HBSS) with 20 mM HEPES, pH 7.3. Pup brains were dissected (see Meberg et al., Methods cell Biol 71:111-127 (2003)) and hippocampi were collected in 15 mL a conical tube containing Hibernate E with SM1 (2% v/v).
Dissociation media was prepared by combining 4.5 mL of Hibernate E (without SM1) with 0.5 mL of trypsin and 100 μl of DNAse solution. The medium over the hippocampi was carefully removed and replaced with dissociation solution, then incubated at 37° C. for 15-20 minutes, occasionally swirling the tube.
Using flame polished cotton plugged Pasteur pipettes, the dissociation media was removed, and then 5 mL of Hibernate E containing SM1 were added. The tube was swirled to thoroughly wash the tissue. The tissue was allowed to settle to the bottom of the tube, and the rinse solution was carefully removed. This step was repeated 5 times to dilute out trypsin and DNAse and remove any debris from lysed cells.
The final rinse media was removed from the tube and 1 pipette-full (1-2 mL) of Hibernate E with SM1 was added. Using the flame-polished Pasteur pipette (pre-wetted with rinse media), the tube was triturated until all cells had dissociated and no visible chunks of tissue remained. Fewer than ten triturations were typically performed. The volume was adjusted to 8-12 mL using Hibernate E containing SM1, the well was mixed and cell concentration was determined.
Plating: The cells were diluted in culture media (NbActiv4 Cell-culture media) to a final concentration of 10,000 cells/mL. The HBSS was aspirated from PDL coated plates, and 150 μL of cell solution was loaded in the middle 48 wells at 1500 cells per well. Water was loaded in the outer wells to decrease evaporation from edge wells. Cells were allowed to adhere for 2 hours in tissue culture incubator prior to treatment.
Treatment: Compounds were diluted to various concentrations to provide 6 dose response concentrations of 500 ng/mL, 250 ng/mL, 125 ng/mL, 62.5 ng/mL, 31.25 ng/mL, and 15.625 ng/mL. The plates were cultured for 48 hours, exposed to the compound at the various dose response concentrations.
Fixing the cultures: The culture medium was removed from the plates and immediately replaced with 100-200 μL of warm (37° C.) 4% paraformaldehyde (“PFA”) solution in phosphate-buffered saline (“PBS”). The cells were fixed for 15-20 minutes at room temperature, and then rinsed with PBS (200 μl/well×3).
Staining and imaging: The PBS was removed and replaced with 100 μL of blocking/permeabilization buffer (PBS, 0.2% fish gelatin, 0.03% Triton X-100, 0.02% NaN3), then incubated overnight at 4° C. To this was added 100 μL of primary antibody solution (mouse anti-Beta III tubulin in blocking buffer) and incubate overnight at 4° C. The wells were rinsed with PBS (200 μl×3), which was then removed and replaced with 100 μL of secondary antibody solution (Goat anti-mouse Alexa 488, 10 μg/ml Hoechst 33342, 0.2% fish gelatin, 0.02% azide, in PBS). The plate was shaken gently on a rotating shaker for 2 hours, then rinsed with PBS (200 μl×5).
The plate was imaged using a Cellomics ArrayScan VTI in 2 different channels for nuclear staining (Hoechst) and cell body/neurite staining (βIII-tubulin). Typically, nine fields per well were imaged with a 5× objective and automatically traced by the Neuronal Profiling Bioapplication. To get reproducible results, at least 200-300 valid neurons were measured per condition. […]

| SMILES | activity at 0.015625 µg/mL | activity at 0.03125 µg/mL | activity at 0.0625 µg/mL | activity at 0.125 µg/mL | activity at 0.25 µg/mL | activity at 0.5 µg/mL | EC200 | EC300 |
| --- | --- | --- | --- | --- | --- | --- | --- | --- |
| CCC(C)C1=N[C@@H](CCCCN2C[C@@H](c3ccccc3)N(CCCC(C)C)C2=S)CN1 (stereo partly drawn) [Compound A19, (4R)-1-(4-((4S)-2-(sec-butyl)-4,5-dihydro-1H-imidazol-4-yl)butyl)-3-(4-methylpentyl)-4-phenylimidazolidine-2-thione] | 121% | 179% | 253% | 264% | 266% | 276% |  |  |
| CC(C)CCCN1C(=S)N(CCCC[C@H]2CNC(C3CCCC3)=N2)C[C@H]1c1ccccc1 [Compound A20, (R)-1-(4-((S)-2-cyclopentyl-4,5-dihydro-1H-imidazol-4-yl)butyl)-3-(4-methylpentyl)-4-phenylimidazolidine-2-thione] | 174% | 234% | 280% | 249% | 278% | 273% |  |  |
| CC1CCC(CN2C(=S)N(CCCC[C@H]3CNC(C4CCCC4)=N3)C[C@H]2C)CC1 (stereo partly drawn) [Compound A8, (R)-1-(4-((S)-2-cyclopentyl-4,5-dihydro-1H-imidazol-4-yl)butyl)-4-methyl-3-((4-methylcyclohexyl)methyl)imidazolidine-2-thione] | 95% | 128% | 168% | 231% | 257% | 322% | 0.13 µM | 0.282 µM |
| CCC(C)C1=N[C@@H](CCCCN2C[C@@H](CC(C)C)N(CCC3CCCCC3)C2=S)CN1 (stereo partly drawn) [Compound A13, (4R)-1-(4-((4S)-2-(sec-butyl)-4,5-dihydro-1H-imidazol-4-yl)butyl)-3-(2-cyclohexylethyl)-4-isobutylimidazolidine-2-thione] | 159% | 179% | 262% | 253% | 253% | 264% |  |  |
| CC(C)CCCN1C(=S)N(CCCC[C@H]2CNC(CCCc3ccccc3)=N2)C[C@H]1c1ccccc1 [Compound A21, (R)-3-(4-methylpentyl)-4-phenyl-1-(4-((S)-2-(3-phenylpropyl)-4,5-dihydro-1H-imidazol-4-yl)butyl)imidazolidine-2-thione] | 114% | 170% | 172% | 259% | 254% | 225% |  |  |
| CC(C)CCCN1C(=S)N(CCCC[C@H]2CNC(C3CCCC3)=N2)C[C@H]1CC(C)C [Compound A11, (R)-1-(4-((S)-2-cyclopentyl-4,5-dihydro-1H-imidazol-4-yl)butyl)-4-isobutyl-3-(4-methylpentyl)imidazolidine-2-thione] | 135% | 215% | 266% | 273% | 264% | 256% |  |  |
| CC(C)C[C@@H]1CN(CCCC[C@H]2CNC(CCCc3ccccc3)=N2)C(=S)N1CCC1CCCCC1 [Compound A15, (R)-3-(2-cyclohexylethyl)-4-isobutyl-1-(4-((S)-2-(3-phenylpropyl)-4,5-dihydro-1H-imidazol-4-yl)butyl)imidazolidine-2-thione] | 114% | 135% | 199% | 201% | 267% | 247% |  |  |
| CC(C)CCCN1C(=S)N(CCCC[C@H]2CNC(C3CCCC3)=N2)C[C@H]1C [Compound A2, (R)-1-(4-((S)-2-cyclopentyl-4,5-dihydro-1H-imidazol-4-yl)butyl)-4-methyl-3-(4-methylpentyl)imidazolidine-2-thione] | 114% | 138% | 176% | 214% | 265% | 324% |  |  |
| CC1CCC(CN2C(=S)N(CCCC[C@H]3CNC(CCCc4ccccc4)=N3)C[C@H]2C)CC1 (stereo partly drawn) [Compound A9, (R)-4-methyl-3-((4-methylcyclohexyl)methyl)-1-(4-((S)-2-(3-phenylpropyl)-4,5-dihydro-1H-imidazol-4-yl)butyl)imidazolidine-2-thione] | 88% | 102% | 118% | 70% | 238% | 297% |  |  |
| CC(C)C[C@@H]1CN(CCCC[C@H]2CNC(CCCc3ccccc3)=N2)C(=S)N1CC1CCC(C)CC1 (stereo partly drawn) [Compound A18, (R)-4-isobutyl-3-((4-methylcyclohexyl)methyl)-1-(4-((S)-2-(3-phenylpropyl)-4,5-dihydro-1H-imidazol-4-yl)butyl)imidazolidine-2-thione] | 145% | 197% | 247% | 257% | 240% | 224% | 0.025 µM | 0.461 µM |
| CC1CCC(CN2C(=S)N(CCCC[C@H]3CNC(C4CCCC4)=N3)C[C@H]2c2ccccc2)CC1 (stereo partly drawn) [Compound A26, (R)-1-(4-((S)-2-cyclopentyl-4,5-dihydro-1H-imidazol-4-yl)butyl)-3-((4-methylcyclohexyl)methyl)-4-phenylimidazolidine-2-thione] | 251% | 272% | 306% | 286% | 271% | 230% | 0.002 µM | > 0.52 µM |
| CCC(C)C1=N[C@@H](CCCCN2C[C@@H](C)N(CC3CCC(C)CC3)C2=S)CN1 (stereo partly drawn) [Compound A7, (4R)-1-(4-((4S)-2-(sec-butyl)-4,5-dihydro-1H-imidazol-4-yl)butyl)-4-methyl-3-((4-methylcyclohexyl)methyl)imidazolidine-2-thione] | 97% | 135% | 150% | 166% | 267% | 294% |  |  |
| CC(C)CCCN1C(=S)N(CCCC[C@H]2CNC(CCCc3ccccc3)=N2)C[C@H]1C [Compound A3, (R)-4-methyl-3-(4-methylpentyl)-1-(4-((S)-2-(3-phenylpropyl)-4,5-dihydro-1H-imidazol-4-yl)butyl)imidazolidine-2-thione] | 116% | 100% | 124% | 160% | 257% | 347% |  |  |
| S=C1N(CCCC[C@H]2CNC(CCCc3ccccc3)=N2)C[C@@H](c2ccccc2)N1CCC1CCCCC1 [Compound A24, (R)-3-(2-cyclohexylethyl)-4-phenyl-1-(4-((S)-2-(3-phenylpropyl)-4,5-dihydro-1H-imidazol-4-yl)butyl)imidazolidine-2-thione] | 144% | 209% | 252% | 254% | 222% | 184% |  |  |
